Values quoted from earlier work, collected in US20060122261A1, “[METHOD OF PREPARING LABDANE DITERPENE COMPOSITION, PREFERABLY ISOFORSKOLIN AND DEACETYLFORSKOLIN FROM FORSKOLIN EXTRACT AND THEIR USE FOR PROMOTING LEAN BODY MASS AND OTHER APPLICATIONS]” (priority 2003, published 2006).

Columns and labels:
adenylate cyclase = details: Rupp, de Souza, Dohadwalla 1985
[1] = Rupp, de Souza, Dohadwalla 1985

| Structure (SMILES) | Effectiveness as adenylate cyclase activator relative to Forskolin (adenylate cyclase) | Effectiveness as hypotensive, anti-hypertensive, positive inotropic relative to Forskolin [1] |
| --- | --- | --- |
| C=C[C@@]1(C)CC(=O)[C@]2(O)[C@@]3(C)[C@@H](O)CCC(C)(C)[C@@H]3[C@H](O)[C@H](O)[C@@]2(C)O1 [7-deacetylforskolin] | equally effective as Forskolin | equally effective as Forskolin |
| C=C[C@@]1(C)CC(=O)[C@@]2(O)[C@](C)(O1)[C@@H](O)[C@@H](OC(C)=O)C1C(C)(C)CC[C@H](O)[C@@]12C (stereo partly shown) [6-acetyl-7-deacetylforskolin] | equally effective as Forskolin | equally effective as Forskolin |
